Results taken from EP0183174A2, “Substituted phenoxy urea, processes for its preparation and herbicide containing it as active ingredient” (KUMIAI CHEMICAL INDUSTRY CO., LTD., priority 1984, dated 1986).

Columns and labels:
[1] = system: barnyardgrass; experiment: Test Example 2: herbicidal test for selectivity between rice and barnyardgrass (herbicidal effects); format: in vivo, Echinochloa crus-galli L.; details: barnyardgrass of 2-leaf stage, thirty days after application
Method: (§1) Into each 1/5000 are Wager pot, paddy soil was filled and puddled, then seeds of barnyardgrass were sown and grown until they reached 2-leaf stage. The barnyardgrass of 2-leaf stage was thinned out to adjust the number of barnyardgrass to fifteen per pot, and rice seedlings of 2-leaf stage were transplanted in the same pot. […] Thereafter, they were grown in a green house, and thirty days after the application, the herbicidal effects and phytotoxicity were evaluated in accordance with the standards as identified in Table 5.

[2] = system: maize; experiment: Test Example 3: herbicidal test by upland soil treatment (phytotoxicity); format: in vivo; parameters: key: 5: Withered; 4.5: Herbicidal effect (or phytotoxicity) in a range of 90 to 99%; 4: Herbicidal effect (or phytotoxicity) in a range of 80 to 89%; 3.5: Herbicidal effect (or phytotoxicity) in a range of 70 to 79%; 3: Herbicidal effect (or phytotoxicity) in a range of 60 to 69%; 2.5: Herbicidal effect (or phytotoxicity) in a range of 50 to 59%; 2: Herbicidal effect (or phytotoxicity) in a range of 40 to 49%; 1.5: Herbicidal effect (or phytotoxicity) in a range of 30 to 39%; 1: Herbicidal effect (or phytotoxicity) in a range of 20 to 29%; 0.5: Herbicidal effect (or phytotoxicity) in a range of 1 to 19%; 0: No herbicidal effect (or no phytotoxicity); details: evaluated twenty days after application
Source text: (§2) Into each plastic pot of 600 cm^2, upland soil was filled, then seeds of barnyardgrass, crabgrass, green foxtail, redroot pigweed, rice flatsedge, rice, wheat, maize, soybean, cotton and sugar beet were sown, and they were covered with soil. A predetermined amount of the wettable powder prepared from the test compound in accordance with Formulation Example 3 and diluted with water, was uniformly applied to the surface of the soil at an application rate of 1000 liter/hectare by means of a small size spray. They were grown in a greenhouse, and twenty days after the application, the herbicidal effects and phytotoxicity were evaluated in accordance with the standards as identified in Table 5.

[3] = system: cotton; experiment: as above; format: in vivo; parameters: key: 5: Withered; 4.5: Herbicidal effect (or phytotoxicity) in a range of 90 to 99%; 4: Herbicidal effect (or phytotoxicity) in a range of 80 to 89%; 3.5: Herbicidal effect (or phytotoxicity) in a range of 70 to 79%; 3: Herbicidal effect (or phytotoxicity) in a range of 60 to 69%; 2.5: Herbicidal effect (or phytotoxicity) in a range of 50 to 59%; 2: Herbicidal effect (or phytotoxicity) in a range of 40 to 49%; 1.5: Herbicidal effect (or phytotoxicity) in a range of 30 to 39%; 1: Herbicidal effect (or phytotoxicity) in a range of 20 to 29%; 0.5: Herbicidal effect (or phytotoxicity) in a range of 1 to 19%; 0: No herbicidal effect (or no phytotoxicity); details: evaluated twenty days after application
Source text: as §2

[4] = system: wheat; experiment: as above; format: in vivo; parameters: key: 5: Withered; 4.5: Herbicidal effect (or phytotoxicity) in a range of 90 to 99%; 4: Herbicidal effect (or phytotoxicity) in a range of 80 to 89%; 3.5: Herbicidal effect (or phytotoxicity) in a range of 70 to 79%; 3: Herbicidal effect (or phytotoxicity) in a range of 60 to 69%; 2.5: Herbicidal effect (or phytotoxicity) in a range of 50 to 59%; 2: Herbicidal effect (or phytotoxicity) in a range of 40 to 49%; 1.5: Herbicidal effect (or phytotoxicity) in a range of 30 to 39%; 1: Herbicidal effect (or phytotoxicity) in a range of 20 to 29%; 0.5: Herbicidal effect (or phytotoxicity) in a range of 1 to 19%; 0: No herbicidal effect (or no phytotoxicity); details: evaluated twenty days after application
Source text: as §2

[5] = system: rice; experiment: as above; format: in vivo; parameters: key: 5: Withered; 4.5: Herbicidal effect (or phytotoxicity) in a range of 90 to 99%; 4: Herbicidal effect (or phytotoxicity) in a range of 80 to 89%; 3.5: Herbicidal effect (or phytotoxicity) in a range of 70 to 79%; 3: Herbicidal effect (or phytotoxicity) in a range of 60 to 69%; 2.5: Herbicidal effect (or phytotoxicity) in a range of 50 to 59%; 2: Herbicidal effect (or phytotoxicity) in a range of 40 to 49%; 1.5: Herbicidal effect (or phytotoxicity) in a range of 30 to 39%; 1: Herbicidal effect (or phytotoxicity) in a range of 20 to 29%; 0.5: Herbicidal effect (or phytotoxicity) in a range of 1 to 19%; 0: No herbicidal effect (or no phytotoxicity); details: evaluated twenty days after application
Source text: as §2

[6] = system: rice flatsedge; experiment: Test Example 3: herbicidal test by upland soil treatment; format: in vivo, Cy^perus iria L.; parameters: key: 5: Withered; 4.5: Herbicidal effect (or phytotoxicity) in a range of 90 to 99%; 4: Herbicidal effect (or phytotoxicity) in a range of 80 to 89%; 3.5: Herbicidal effect (or phytotoxicity) in a range of 70 to 79%; 3: Herbicidal effect (or phytotoxicity) in a range of 60 to 69%; 2.5: Herbicidal effect (or phytotoxicity) in a range of 50 to 59%; 2: Herbicidal effect (or phytotoxicity) in a range of 40 to 49%; 1.5: Herbicidal effect (or phytotoxicity) in a range of 30 to 39%; 1: Herbicidal effect (or phytotoxicity) in a range of 20 to 29%; 0.5: Herbicidal effect (or phytotoxicity) in a range of 1 to 19%; 0: No herbicidal effect (or no phytotoxicity); details: evaluated twenty days after application
Source text: as §2

[7] = system: Paddy rice; experiment: Test Example 2: herbicidal test for selectivity between rice and barnyardgrass (phytotoxicity); format: in vivo; details: transplanted rice seedlings of 2-leaf stage, thirty days after application
Method: as §1

With `CN(C)C(=O)NOc1cc(Cl)ccc1Cl` [Compound No. 1, 3-(2,5-Dichlorophenoxy)-1,1-dimethyl urea] the “Herbicidal effects Barnyard grass” value ([1]; Dose 0.25 kg/Ha) was 5, the “Herbicidal effects Barnyard grass” value ([1]; Dose 0.5 kg/Ha) was 5 and the “Herbicidal effects Barnyard grass” value ([1]; Dose 1 kg/Ha) was 5. For the same molecule, the “Phytotoxicity Maize” value ([2]; Dose 1 kg/HA) was 0, the “Phytotoxicity Maize” value ([2]; Dose 4 kg/HA) was 0 and the “Phytotoxicity Cotton” value ([3]; Dose 1 kg/HA) was 0. For the same molecule, the “Phytotoxicity Cotton” value ([3]; Dose 4 kg/HA) was 0, the “Phytotoxicity Wheat” value ([4]; Dose 1 kg/HA) was 0 and the “Phytotoxicity Wheat” value ([4]; Dose 4 kg/HA) was 0. For the same molecule, the “Phytotoxicity Rice” value ([5]; Dose 1 kg/HA) was 0, the “Phytotoxicity Rice” value ([5]; Dose 4 kg/HA) was 0 and the “Herbicidal effects Rice flatsedge” value ([6]; Dose 1 kg/HA) was 5. The “Herbicidal effects Rice flatsedge” value ([6]; Dose 4 kg/HA) was 5, the “Phytotoxicity Paddy rice” value ([7]; Dose 0.25 kg/Ha) was 0 and the “Phytotoxicity Paddy rice” value ([7]; Dose 0.5 kg/Ha) was 0. The “Phytotoxicity Paddy rice” value ([7]; Dose 1 kg/Ha) was 1 (Herbicidal effect (or phytotoxicity) in a range of 20 to 29%).
With `CC(C)N(C)C(=O)NOc1cc(Cl)cc(Cl)c1` [Compound No. 186, 3-(3,5-Dichlorophenoxy)-1-isopropyl-1-methyl urea trichloroacetate] the “Herbicidal effects Barnyard grass” value ([1]; Dose 0.25 kg/Ha) was 5, the “Herbicidal effects Barnyard grass” value ([1]; Dose 0.5 kg/Ha) was 5 and the “Herbicidal effects Rice flatsedge” value ([6]; Dose 1 kg/HA) was 5. The “Herbicidal effects Rice flatsedge” value ([6]; Dose 4 kg/HA) was 5, the “Phytotoxicity Paddy rice” value ([7]; Dose 0.25 kg/Ha) was 0 and the “Phytotoxicity Paddy rice” value ([7]; Dose 0.5 kg/Ha) was 1 (Herbicidal effect (or phytotoxicity) in a range of 20 to 29%).
In the case of `CON(C)C(=O)NOc1cc(Cl)ccc1Cl` [Compound No. 242, 3-(2,5-Dichlorophenoxy)-1-methoxy-1-methyl urea], the “Herbicidal effects Rice flatsedge” value ([6]; Dose 1 kg/HA) is reported as 5 and the “Herbicidal effects Rice flatsedge” value ([6]; Dose 4 kg/HA) is reported as 5.
With `COCCNC(=O)NOc1cc(Cl)ccc1Cl` [Compound No. 243] the “Herbicidal effects Rice flatsedge” value ([6]; Dose 1 kg/HA) was 5 and the “Herbicidal effects Rice flatsedge” value ([6]; Dose 4 kg/HA) was 5.
